The source made the active and inactive calls.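 How the source made its calls: active means compounds giving half or more protection of infected cells from virus-caused growth loss, again on retest; inactive means the rest.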

This assay relates to CEM cells HIV-1 protection, formazan growth assay. In words: NCI AIDS Antiviral Assay. Conditions: for IC50: measured here: growth of uninfected CEM cells. In outline: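 Screen of anti-HIV-1 activity in human CEM cells using a formazan-based growth measurement at five drug concentrations. Hits with 50% or greater protection were repeated, and confirmation required reproducible complete protection.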

For orientation: EC50 means the concentration giving half of the maximal effect. As usually defined, the IC50 is the point on the concentration scale where inhibition reaches its midpoint. A high value points to weaker potency in that assay. For `O=NN1C(c2ccccc2)CC(=NO)CC1c1ccccc1` (configuration not stated), the EC50 is greater than 200 µM and the IC50 was found to be 129 µM.

`C=C1CN(S(=O)(=O)c2ccc(C)cc2)CCCN(CC2CCCCC2)CCCN(S(=O)(=O)c2ccc(C)cc2)C1`: the EC50 is greater than 46.8 µM and the IC50 stood at 1.17 µM.

`Cc1nc(-c2ccccc2)cc2c1c(=O)oc1ccccc12`: the EC50 is greater than 5.01 µM and the IC50 was greater than 5.01 µM.

`COc1cc2c3c(c1)[nH]c(=S)n3C(=O)CS2`: the EC50 is greater than 28.8 µM and the IC50 is greater than 28.8 µM.

For `CC1(C)OC(=O)NC1=O`, the result was inactive.

Regarding `O=c1cc(-c2ccccc2)oc2ccccc12`, the EC50 is greater than 135 µM and the IC50 is 75.9 µM.

Turning to `NC(F)(Cc1ccccc1)C(=O)O` (configuration not stated), the EC50 was greater than 200 µM and the IC50 is greater than 200 µM.

`Nc1ccc(Oc2ccc(S(=O)(=O)c3ccc(Oc4ccc(N)cc4N)cc3)cc2)c(N)c1`: the EC50 was greater than 200 µM and the IC50 turned out to be 120 µM.

With `Cn1c(=O)cc(CC(=O)O)c2ccccc21`, the EC50 was greater than 200 µM and the IC50 was greater than 200 µM.

In the case of `COc1ccc(-c2cc(=O)c3c(O)cc(C)cc3o2)cc1OC`, the EC50 is greater than 200 µM and the IC50 is greater than 200 µM.

As for `Cc1[nH]cc2c1C(c1ccccc1F)=NCC(=O)N2`, the EC50 is greater than 229 µM and the IC50 was greater than 229 µM.

Regarding `COC(=O)C1=C(SC)SC2(C(=O)OC)C3C=C(C)C4C(N13)C42C(=O)OC` (configuration not stated), the EC50 was greater than 3.63 µM and the IC50 was greater than 3.63 µM.

As to `CCOC(=O)c1ccc(C(=O)n2ccnc2)[nH]1`, the EC50 was greater than 200 µM and the IC50 was greater than 200 µM.

For `COc1cc(N=Nc2cc(NC(C)=O)c(N=Nc3ccc(S(=O)(=O)O)cc3)cc2S(=O)(=O)O)c(C)cc1N=Nc1ccc(NC(=O)c2ccc(N)cc2)cc1C`, the EC50 was 8.71 µM and the IC50 worked out at 97.7 µM.

On to `CCC(=O)n1c(=O)n(-c2ccc([N+](=O)[O-])cc2)c(=O)n1C(=O)CC`, for which the EC50 is greater than 200 µM and the 50% inhibitory concentration (IC50) is greater than 200 µM.

`CCOC(=O)C(=O)N(CC(=O)OC)C(=O)Cc1ccccc1`: the EC50 is 513 µM and the IC50 was 813 µM.

Take `C=CCOC(=O)C1CC2OC2CC1C(=O)OCC=C` (configuration not stated): the EC50 is greater than 200 µM and the half-maximal inhibitory concentration (IC50) was greater than 200 µM.

Regarding `Cc1cc(-c2ccc[nH]2)on1`, the EC50 is greater than 200 µM and the IC50 is greater than 200 µM.

As to `Nc1nc2ncn(COC(CO)CO)c2c(=O)[nH]1`, the EC50 was greater than 200 µM and the IC50 is greater than 200 µM.

Turning to `CCOC(=O)/C(C#N)=C1/C(O)=C(C(=O)OC)C(C(=O)OC)=C1C(=O)OC`, the outcome was inactive.

With `COc1ccc2[nH]c3c(=O)[nH]ncc3c2c1`, the result was inactive.

Take `O/N=C1/C(=C/c2ccc(F)cc2)CCCC1C(NO)c1ccc(F)cc1` (configuration not stated): the EC50 was greater than 2.88 µM and the IC50 is greater than 2.88 µM.

As for `CCN(CC)CC1CCCCN1CC(=O)N1c2ccccc2NC(=O)CC1C` (configuration not stated), the EC50 was 158 µM and the IC50 was greater than 200 µM.

In the case of `O=C(CBr)Nc1ccccc1-c1ccccc1NC(=O)CBr`, the result was inactive.

For `CN(C)CCCN1c2ccccc2Sc2ccc(C(F)(F)F)cc21`, the EC50 is greater than 200 µM and the IC50 was determined as 107 µM.

Regarding `Cc1ccc(N2CC(=O)N3CCCC(C)N3C(=O)C2)cc1` (configuration not stated), the EC50 was greater than 200 µM and the IC50 came out at 174 µM.

On to `COc1ccc(/C(=N/NC(=O)NN)C(c2ccc(OC)cc2)C2(O)CNc3c(Cl)cc(Cl)cc32)cc1` (configuration not stated), for which the EC50 was greater than 9.77 µM and the half-inhibitory concentration (IC50) was greater than 9.77 µM.

For `CC1CN2CCc3c([nH]c4ccccc34)C2C[C@@H]1CC(=O)N(C)C` (some centres not stated), the EC50 is greater than 191 µM and the IC50 is greater than 191 µM.

Consider `O=C1C2=Nc3ccccc3C(O)N2c2ccccc21` (configuration not stated), for which the EC50 was greater than 200 µM and the IC50 was determined as 69.2 µM.

For the molecule `C=C1C(OC(=O)CC(c2ccccc2)N(C)C)C[C@H](OC(C)=O)[C@]2(C)C1C[C@@H]1CC(OC(C)=O)C(C)=C([C@@H](OC(C)=O)C2OC(C)=O)C1(C)C` (some centres not stated), the outcome was inactive.

With `Clc1ccc(OC2CCO2)cc1Cl` (configuration not stated), the EC50 is greater than 162 µM and the IC50 came to 145 µM.

`CCC/C(=N/OC(=O)N(C)C)c1ccccc1`: the EC50 was greater than 200 µM and the IC50 was found to be 135 µM.

Regarding `CCOC(=O)/C=C/CCO[Si](C)(C)C(C)(C)C`, the EC50 is greater than 200 µM and the IC50 was greater than 200 µM.

Take `CCN(CC)C(=S)SCC(=O)Nc1nc2c(s1)CCCC2`: the EC50 is greater than 20.9 µM and the IC50 was greater than 20.9 µM.

For the molecule `Cc1ccc2c(c1)c1ccc3c(c1n2C)C(=O)C=CC3=O`, the EC50 was greater than 100 µM and the IC50 came out at 2.45 µM.

In the case of `Cc1ccc2nc3c(Cl)cc(=O)cc-3sc2c1`, the EC50 was greater than 7.59 µM and the IC50 came to 3.89 µM.

For the molecule `CN(C1=NCCO1)c1cccc2c1CCCC2`, the EC50 was greater than 200 µM and the IC50 amounted to 4.47 µM.

Consider `CCOC(=O)Cn1c(=O)[nH]c(=O)c2[nH]cnc21`, for which the EC50 is greater than 1050 µM and the IC50 is greater than 1050 µM.

Turning to `CC(=O)/C(=C(/Br)I)c1ccccc1`, the result was inactive.

As to `CC(C)(N=NC(C)(C)C(=O)NCCO)C(=O)NCCO`, the EC50 is greater than 200 µM and the IC50 is greater than 200 µM.

On to `Cc1cc2c(c(N)c1C)C(=O)c1ccccc1C2=O`, for which the outcome was inactive.

As to `COc1c(OCc2ccccc2)c(OCc2ccccc2)cc(CO)c1-c1c(CO)cc(OCc2ccccc2)c(OCc2ccccc2)c1OC`, the EC50 is greater than 2.88 µM and the IC50 was greater than 2.88 µM.

With `Nc1ncnc2nc(C3OC(CO)C(O)C3O)[nH]c12` (configuration not stated), the EC50 was greater than 70.8 µM and the IC50 is greater than 70.8 µM.

Consider `O=C(NNCc1ccccc1O)c1ccccc1O`, for which the EC50 was greater than 200 µM and the IC50 was 2.88 µM.

On to `CC(=O)NC1C(OC(C)C(=O)NC(C(=O)NC(CCC(=O)NCCCNC2c3ccccc3Nc3cccc([N+](=O)[O-])c32)C(N)=O)C(C)C)C(O)C(CO)OC1(C)OCc1ccccc1` (configuration not stated), for which the EC50 was greater than 10 µM and the IC50 was determined as 1.74 µM.

For `CN(C)/C(N)=N/C(N)=Nc1cccc(Cl)c1`, the EC50 was greater than 200 µM and the IC50 was 83.2 µM.

As to `NC1=NC2=c3ccccc3=C(c3cnccn3)C2(c2cnccn2)c2ccccc21` (configuration not stated), the EC50 is greater than 93.3 µM and the IC50 stood at 70.8 µM.

As to `Cc1c([O-])c([O-])c(C)c2c1OCO2.[C-]#[O+].[C-]#[O+].[C-]#[O+].[Re].c1ccc([PH+](c2ccccc2)c2ccccc2)cc1`, the EC50 was greater than 15.1 µM and the IC50 was 6.46 µM.

As for `c1cc(C2=NCCO2)c2ccsc2c1`, the EC50 is greater than 200 µM and the IC50 was found to be 155 µM.

Consider `O=C(O)C1=C(C(=O)Nc2ccccc2)C2C=CC1C2` (configuration not stated), for which the EC50 is greater than 977 µM and the IC50 is 214 µM.

Consider `O=C(O)c1ccccc1/C=N/NC1=CS(=O)(=O)C=C1`, for which the outcome was inactive.

Consider `NCCCNCCCCN1CCOC1=O`, for which the EC50 is greater than 200 µM and the IC50 worked out at 50.1 µM.

As for `COC(=O)Nc1nc2cc(OC)c(OC)cc2c(=O)[nH]1`, the EC50 is greater than 200 µM and the IC50 was found to be 8.71 µM.

Take `O=C(Nc1ccc(Br)cc1)c1cc(Br)ccc1O`: the EC50 is greater than 200 µM and the IC50 amounted to 4.37 µM.

`O=C(O)c1ccc(NC(NC(=O)C(C(F)(F)F)C(F)(F)F)(C(F)(F)F)C(F)(F)F)cc1`: the EC50 was greater than 200 µM and the IC50 was greater than 200 µM.

Regarding `Nc1nc(-c2ccccc2)nc(N)c1N=O`, the EC50 was greater than 200 µM and the IC50 is 2.57 µM.

As for `Oc1cc2ccccc2c2sc(-c3ccccc3)c(-c3ccccc3)[n+]12`, the EC50 is greater than 200 µM and the IC50 stood at 17.8 µM.

Take `CC[C@]1(Cc2ccc(OC)c(OC)c2)[C@@H]2C[C@@H](C3OCCO3)ON2O[C@H](OC2CCCC2(c2ccccc2)c2ccccc2)[C@@H]1OC(C)=O` (some centres not stated): the EC50 is greater than 200 µM and the IC50 stood at 21.9 µM.

Take `COc1cc(NC=O)c2c(c1)SCC(=O)N2`: the EC50 is greater than 200 µM and the IC50 turned out to be 135 µM.

As for `COc1cccc2c(NNc3ccc(Cl)cc3)c3ccc([N+](=O)[O-])cc3nc12`, the EC50 is greater than 200 µM and the IC50 was 12.3 µM.

Consider `O=c1oc2ccccc2c(O)c1C(c1ccc(C(c2c(O)c3ccccc3oc2=O)c2c(O)c3ccccc3oc2=O)cc1)c1c(O)c2ccccc2oc1=O`, for which the EC50 was greater than 200 µM and the IC50 was 50.1 µM.

Regarding `Cc1nnc2sc(=S)[nH]n12`, the result was inactive.

Regarding `CC1=NNC(=O)C1C(C/C(=N/O)c1c[nH]c2ccccc12)C(=O)O` (configuration not stated), the EC50 is greater than 100 µM and the IC50 is greater than 100 µM.

Take `Cc1ccccc1[P+](Cc1ccccc1)(c1ccccc1C)c1ccccc1C`: the EC50 was greater than 20 µM and the IC50 is 1.07 µM.

`CCn1c(O)c(C=Nc2ccccc2)s/c1=N/Nc1nc(C)c(C(C)=O)s1`: the EC50 is greater than 200 µM and the IC50 was greater than 200 µM.

For the molecule `CCC(=O)C[P+](c1ccccc1)(c1ccccc1)c1ccccc1`, the EC50 is greater than 200 µM and the IC50 was 69.2 µM.

Consider `CC(=O)OC[C@]12CCC3[C@@]4(C)CCCC(C)(C)C4CC[C@@]3(C)C1CC(C1=CC(=O)OC1O)O2` (some centres not stated), for which the EC50 is greater than 200 µM and the IC50 was 0.759 µM.

As for `CCc1cccc(CC)c1NC(=O)C1=CNC(C)=C(C(=O)Nc2c(CC)cccc2CC)C1c1ccc(O)c(OC)c1` (configuration not stated), the EC50 was greater than 63.1 µM and the IC50 is 49 µM.

For the molecule `Nc1ncnc2c1ncn2C1CCCCC1O` (configuration not stated), the EC50 is greater than 58.9 µM and the IC50 was greater than 58.9 µM.

As for `C[C@H](CCC1=NCCN1)[C@H]1CC[C@H]2[C@@H]3[C@H](O)C[C@@H]4C[C@H](O)CC[C@]4(C)[C@H]3CC[C@]12C`, the EC50 is greater than 200 µM and the IC50 was determined as 24 µM.

Regarding `CC1=C(C(=O)Nc2ccc([N+](=O)[O-])cc2)C(c2ccc3c(c2)OCO3)C(C(=O)Nc2ccc([N+](=O)[O-])cc2)=C(C)N1`, the EC50 is greater than 6.76 µM and the IC50 is greater than 6.76 µM.

`CCOC1=NC(C(F)(F)F)(C(F)(F)F)N=C(N2CCOCC2)O1`: the EC50 was greater than 200 µM and the IC50 was greater than 200 µM.

With `C/C=C/C1(C)/C(=N\O)C(C)(CCC)C(=O)N1O` (configuration not stated), the EC50 is 25.1 µM and the IC50 is 1050 µM.
